In paper PMC8696980, “Isolation, semi-synthesis, docking-based prediction, and bioassay-based activity of Dolichandrone spathacea iridoids: new catalpol derivatives as glucosidase inhibitors” (RSC Advances, 2021):
Where two headings read alike, the source gives them in different places.

Molecular target: T1, α-glucosidase (Saccharomyces cerevisiae, UniProt P53341)
T1 construct: purchased Sigma-Aldrich G0660
Assay: biochemical
Assay type: biochemical
Settings: 37 °C, 30 minutes, pH 6.8
Method: All analytically graded reagents were purchased from either Sigma-Aldrich or Merck & Co. and used without further purification. Solvents for column chromatography were distilled before use. Melting points (in °C) were determined on a Thermo Mel-temp 3.0 (USA). Infrared (IR) spectra were recorded on an IMPACT 410 Nicolet Spectrometer. ESI-MS spectra were obtained from an 1100 Agilent LC/MS ion Trap. 1D (^1H, ^13C and DEPT) and 2D (HSQC, HMBC, COSY, NOESY) NMR spectra were recorded on a Bruker Avance 500 MHz using tetramethylsilane (TMS) as the internal standard for ^1H and solvent signal for ^13C NMR. Thin-layer chromatography (TLC) was carried out on a pre-coated silica gel 60 F254 (Merck & Co.), visualised under ultraviolet (UV) radiation at λmax 254 nm, and stained by a solution of 1% (w/w) vanillin in sulfuric acid. Column chromatography (CC) was performed on silica gel 300–400 mesh (Merck & Co.). Enzyme α-glucosidase was purchased from Sigma-Aldrich under the name code G0660, detected by a Biotek Epoch 2 microplate readers (USA).
Each assay was performed on 96 well-plates (200 μL per well). The test samples were dissolved in DMSO 10% and further diluted to the concentrations: 1024, 256, 64, 16, 4, 1 μg.mL^−1. Each concentration of the test sample (10 μL) was incubated at 37 °C with phosphate buffer 100 mM (pH 6.8, 40 μL), α-glucosidase 0.4 U mL^−1 (25 μL), p-nitrophenyl α-D-glucopyranoside 2.5 mM (25 μL). After 30 minutes, the reaction was terminated by adding 100 μL of 0.1 M Na2CO3 solution. The enzyme activities were determined by measuring the absorbance at λmax 410 nm. […] Percentage of inhibition was calculated as followed:[31] [drawing 1]

[1] = IC50 (α-glucosidase inhibitory activity)

T1 sequence (P53341 whole entry): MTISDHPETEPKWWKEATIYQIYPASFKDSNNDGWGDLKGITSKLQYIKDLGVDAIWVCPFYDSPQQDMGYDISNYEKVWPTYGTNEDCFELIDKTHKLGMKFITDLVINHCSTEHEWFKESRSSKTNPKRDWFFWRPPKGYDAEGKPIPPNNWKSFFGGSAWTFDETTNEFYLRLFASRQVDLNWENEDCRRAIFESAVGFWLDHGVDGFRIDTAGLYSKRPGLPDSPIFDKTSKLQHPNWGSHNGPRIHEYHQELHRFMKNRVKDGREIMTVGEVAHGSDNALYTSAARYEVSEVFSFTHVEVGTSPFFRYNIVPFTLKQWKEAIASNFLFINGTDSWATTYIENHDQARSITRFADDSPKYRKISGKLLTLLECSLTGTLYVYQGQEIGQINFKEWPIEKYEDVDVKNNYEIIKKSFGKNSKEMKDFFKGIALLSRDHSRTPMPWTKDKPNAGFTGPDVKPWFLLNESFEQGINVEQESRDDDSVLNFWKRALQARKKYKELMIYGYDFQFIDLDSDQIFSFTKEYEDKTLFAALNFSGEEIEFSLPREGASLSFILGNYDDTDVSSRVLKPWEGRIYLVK

| IC50 (read-out: IC50 (α-glucosidase inhibitory activity)) | Compound | IC50 [1] | IC50 (α-glucosidase inhibitory activity) |
| --- | --- | --- | --- |
|  | COc1ccc(C=CC(=O)OC2C3C=COC(OC4OC(CO)C(O)C(O)C4O)C3C3(CO)OC23)cc1 (stereo not shown) [Compound 1, 6-O-[(E)-4-methoxycinnamoyl]catalpol] | 24.9 µM |  |
|  | COc1ccc(C=CC(=O)OC2C3C=COC(OC4OC(CO)C(O)C(O)C4O)C3C3(CO)OC23)cc1OC (stereo not shown) [Compound 2, 6-O-[(E)-3,4-dimethoxycinnamoyl]catalpol] | 7.24 µM |  |
|  | COc1ccc(CCC(=O)OC2C3C=COC(OC4OC(CO)C(O)C(O)C4O)C3C3(CO)OC23)cc1 (stereo not shown) [Compound 3, 6-O-(4-methoxyphenylpropanoyl)catalpol] | > 390 µM | inactive |
|  | COc1ccc(CCC(=O)OC2C3C=COC(OC4OC(CO)C(O)C(O)C4O)C3C3(CO)OC23)cc1OC (stereo not shown) [Compound 4, 6-O-(3,4-dimethoxyphenylpropanoyl)catalpol] | > 390 µM | inactive |
|  | COc1ccc(CCC(=O)OC2C3C=COC(OC4OC(COC(C)=O)C(OC(C)=O)C(OC(C)=O)C4OC(C)=O)C3C3(COC(C)=O)OC23)cc1OC (stereo not shown) [Compound 5, 6-O-(3,4-dimethoxyphenylpropanoyl)catalpolpentaacetate] | > 390 µM | inactive |
|  | COc1ccc(C=CC(=O)OC2C3C=COC(OC4OC(COC(c5ccccc5)(c5ccccc5)c5ccccc5)C(O)C(O)C4O)C3C3(COC(c4ccccc4)(c4ccccc4)c4ccccc4)OC23)cc1OC (stereo not shown) [Compound 6, 6-O-[(E)-3,4-dimethoxy]catalpol-10,6′-O-ditriphenylmethyl] | 225 µM |  |
|  | COc1ccc(C=CC(=O)OC2C3C=COC(OC4OC(COC(C)=O)C(OC(C)=O)C(OC(C)=O)C4OC(C)=O)C3C3(COC(C)=O)OC23)cc1 (stereo not shown) [Compound 7, minecoside pentaacetate] | 168 µM |  |
|  | COc1ccc(C=CC(=O)OC2C3C=COC(OC4OC(COC(C)=O)C(OC(C)=O)C(OC(C)=O)C4OC(C)=O)C3C3(COC(C)=O)OC23)cc1OC (stereo not shown) [Compound 8, 6-O-[(E)-3,4-dimethoxycinnamoyl]catalpolpentaacetate] | > 390 µM | inactive |
|  | COc1ccc(C=CC(=O)OC2C3C=COC(OC4OC5COC(C)(C)OC5C(O)C4O)C3C3(CO)OC23)cc1 (stereo not shown) [Compound 9, 6-O-[(E)-4-methoxycinnamoyl]catalpol-4′,6′-acetonide] | > 390 µM |  |
|  | CC(=CCO)CCC=C(C)C(=O)OC1C2C=COC(OC3OC(CO)C(O)C(O)C3O)C2C2(CO)OC12 (stereo not shown) [Compound 10, nemoroside] | 0.05 µM |  |
|  | COc1ccc(C=CC(=O)OC2C3C=COC(OC4OC(COC(C)=O)C(OC(C)=O)C(OC(C)=O)C4OC(C)=O)C3C3(COC(C)=O)OC23)cc1OC(C)=O (stereo not shown) [Compound 11, 6-O-[(E)-4-methoxycinnamoyl]catalpolhexaacetate] | > 390 µM | inactive |
|  | CC(=O)OCC1OC(OC2OC=CC3C(OC(=O)C=Cc4ccc(OC(C)=O)cc4)C4OC4(COC(C)=O)C23)C(OC(C)=O)C(OC(C)=O)C1OC(C)=O (stereo not shown) [Compound 12, specioside hexaacetate] | 71.6 µM |  |
|  | COc1ccc(/C=C/C(=O)O[C@H]2[C@@H]3C=CO[C@@H](O[C@@H]4O[C@H](CO)[C@@H](O)[C@H](O)[C@H]4O)[C@@H]3[C@@]3(CO)O[C@@H]23)cc1O [Compound 13, minecoside] | 20.8 µM |  |
| 8.65 µM | O=C(/C=C/c1ccc(O)cc1)O[C@H]1[C@@H]2C=CO[C@@H](O[C@@H]3O[C@H](CO)[C@@H](O)[C@H](O)[C@H]3O)[C@@H]2[C@@]2(CO)O[C@@H]12 [Compound 14, specioside] |  |  |
